Laboratory results taken from ChEMBL document CHEMBL3751706, “Synthesis, biological studies and molecular dynamics of new anticancer RGD-based peptide conjugates for targeted drug delivery” (Bioorg Med Chem, 2016).
Active and inactive are the calls of the source. The rule behind the calls is not given here.

Key:
[1] = Half life in mouse liver homogenates by LC-MS analysis; type: ADME, tissue-based; conditions: liver homogenate
[2] = Chemical stability of the compound at pH 7.4 assessed as half life by LC-MS analysis; type: physicochemical; conditions: buffer
[3] = Chemical stability of the compound at pH 5.2 assessed as half life by LC-MS analysis; type: physicochemical; conditions: buffer
B16-F10 [4] = experiment: Cytotoxicity against mouse B16F10 cells overexpressing alphavbeta3 integrin up to 50 uM after 24 hrs by XTT assay; type: functional, cell-based
NCI-H1299 [5] = experiment: Cytotoxicity against human H1299 cells overexpressing alphavbeta3 integrin at up to 50 uM after 24 hrs by XTT assay; type: functional, cell-based
HEK293 [6] = experiment: Cytotoxicity against HEK293 […] cells non-expressing alphavbeta3 integrin up to 50 uM after 24 hrs by XTT assay; type: cell-based; conditions: human, hek293, 24 h
B16-F10 [7] = experiment: Cytotoxicity against mouse B16F10 cells overexpressing alphavbeta3 integrin at 50 to 100 uM after 24 hrs by XTT assay; type: functional, cell-based
NCI-H1299 [8] = experiment: Cytotoxicity against human H1299 cells overexpressing alphavbeta3 integrin at >50 uM after 24 hrs by XTT assay; type: functional, cell-based
Liver [9] = experiment: Drug metabolism in mouse liver homogenates assessed as time duration for drug release at 37 degC by LC-MS analysis; type: ADME, tissue-based; conditions: tissue homogenate
Liver [10] = experiment: Drug metabolism in mouse liver homogenates assessed as half life for drug release at 37 degC by LC-MS analysis; type: ADME, tissue-based; conditions: tissue homogenate
HEK293 [11] = experiment: Cytotoxicity against HEK293 […] cells non-expressing alphavbeta3 integrin after 24 hrs by XTT assay; type: cell-based; conditions: human, hek293, 24 h

| Structure (SMILES) | half-life [1] | half-life [2] | half-life [3] | Activity (B16-F10 [4]) | Activity (NCI-H1299 [5]) | Activity (HEK293 [6]) | Activity (B16-F10 [7]) | Activity (NCI-H1299 [8]) | Drug metabolism (Liver [9]) | Time (Liver [9]) | t1/2 (Liver [10]) | Activity (HEK293 [11]) |
| --- | --- | --- | --- | --- | --- | --- | --- | --- | --- | --- | --- | --- |
| CC[C@@]1(O)C(=O)OCc2c1cc1n(c2=O)Cc2cc3ccccc3nc2-1 [CAMPTOTHECIN] | 105 min | < 5760 min | < 5760 min | Active | Active | Toxic |  |  |  |  |  |  |
| N=C(N)NCCC[C@@H]1NC(=O)[C@H](CCCCNC(=O)CCCc2ccc(N(CCCl)CCCl)cc2)NC(=O)[C@@H](Cc2ccccc2)NC(=O)[C@H](CC(=O)O)NC(=O)CNC1=O |  | < 720 min | < 720 min |  |  |  | Active | Active | metabolite_notdetected |  |  |  |
| CC[C@@]1(OC(=O)NCCCC[C@@H]2NC(=O)[C@@H](Cc3ccccc3)NC(=O)[C@H](CC(=O)O)NC(=O)CNC(=O)[C@H](CCCNC(=N)N)NC2=O)C(=O)OCc2c1cc1n(c2=O)Cc2cc3ccccc3nc2-1 |  | > 5760 min | > 5760 min |  |  |  |  |  |  | 10 min | 5 min |  |
| N=C(N)NCCC[C@@H]1NC(=O)[C@H](COC(=O)CCCc2ccc(N(CCCl)CCCl)cc2)NC(=O)[C@@H](Cc2ccccc2)NC(=O)[C@H](CC(=O)O)NC(=O)CNC1=O |  | < 720 min | < 720 min |  |  |  | Active | Active |  | 45 min | 5 min | Toxic |
| O=C(O)CCCc1ccc(N(CCCl)CCCl)cc1 [CHLORAMBUCIL] | 60 min | 200 min | 200 min |  |  |  |  |  |  |  |  |  |
